From paper PMC8049054, “Systematic Assessment of Fragment Identification for Multitarget Drug Design” (Chemmedchem, 2021)

Molecular target: T1, leukotriene A4 hydrolase (LTA4H) (Homo sapiens, UniProt P09960)
T1 construct: made in house; host or cells: E. coli BL21 (DE3)
T1 sequence (P09960 1-611): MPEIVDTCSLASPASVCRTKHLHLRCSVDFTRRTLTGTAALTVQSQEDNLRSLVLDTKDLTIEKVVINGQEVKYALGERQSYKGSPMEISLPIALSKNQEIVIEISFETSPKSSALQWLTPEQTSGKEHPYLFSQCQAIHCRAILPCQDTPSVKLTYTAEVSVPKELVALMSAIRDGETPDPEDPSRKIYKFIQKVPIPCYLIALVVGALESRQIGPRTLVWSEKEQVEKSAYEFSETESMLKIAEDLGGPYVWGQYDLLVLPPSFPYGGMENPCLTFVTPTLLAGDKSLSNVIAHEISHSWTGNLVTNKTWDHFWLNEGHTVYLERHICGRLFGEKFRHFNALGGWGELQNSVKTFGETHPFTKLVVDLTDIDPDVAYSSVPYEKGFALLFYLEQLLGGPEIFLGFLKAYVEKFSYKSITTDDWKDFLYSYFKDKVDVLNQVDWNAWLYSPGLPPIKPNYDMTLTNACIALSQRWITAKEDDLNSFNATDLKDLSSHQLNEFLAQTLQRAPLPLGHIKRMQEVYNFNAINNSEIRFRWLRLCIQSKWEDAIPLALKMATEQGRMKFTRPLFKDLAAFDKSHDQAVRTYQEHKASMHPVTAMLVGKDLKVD
Test: LTA4H activity assay (fluorogenic substrate Arg-AMC)
Format: biochemical
Conditions: for IC50: mean±standard deviation of three independent experiments; for LTA4H LE: ligand efficiency calculated from IC50
Protocol: For hit validation, we employed secondary assays with orthogonal readouts to confirm fragment activities. Biochemical activity assays were chosen for the enzymes sEH, LTA4H, and 5‐LOX. […] RXRα and FXR modulation was assessed in cell‐based hybrid reporter gene assays. All ten compounds were tested at a single concentration of 500 μM in the sEH and LTA4H activity assays and with a concentration of 100 μM on 5‐LOX, RXRα, and FXR. Fragments showing an inhibition greater than 50 % (sEH‐H and LTA4H) or greater than 70 % (5‐LOX) as well as the hits determined in the DSF experiments were further characterized in full concentration‐response curves between 0.1 and 1000 μM. […] As alternative cell‐free assay we employed isothermal titration calorimetry (ITC) to determine binding affinity of the fragments towards the LBDs of both nuclear receptors. ITC was performed with a protein concentration of 50 μM and compound concentrations of 250 μM.
The 10 fragments showing dual activity in the DSF experiments were validated by functional assay screening with a fixed concentration of 500 µM in case of sEH-H and LTA4H, 100 µM in case of 5-LOX and 30 µM, 10 µM and 5 µM in case of FXR and […]
% (5-LOX) as well as the hits determined in the DSF experiments were further measured with concentrations between 1000 µM and 0.1 µM (sEH-H and LTA4H) and between 300 µM and 1 µM (5-LOX). The sEH and LTA4H activity assays were performed as triplicate and repeated 3 times. The 5-LOX activity assay was performed with one point per concentration and repeated 3 times Raw data was first analyzed in Microsoft Office Excel (2013), before IC50 curves were plotted and further analyzed using GraphPad Prism 7 and GraphPad Prism 8 for the shown graphs .
The eight approved drugs were measured in the orthogonal assay systems analogous to the fragments. The approved drugs were […]
For the sEH-H and LTA4H, they were measured as triplicate in concentrations between 1000 µM and 1 µM and each measurement was repeated three times. […]
Raw data was processed according to the fragments. […]
The LTA4H activity assay was performed adapted from Hiesinger et al.3.As in the sEH-H measurement 1 µl of compound dilution in DMSO or pure DMSO (for the positive and negative control) was placed in a black 96-well plate (Thermo Scientific™ Nunc™ F96 MicroWell™ Black Polystyrene Plate) and then 89 µl of protein-mix or buffer mix (without protein as negative control) were added and incubated for 30 min at room temperature.

Oc1ccc2cc[nH]c2c1 [Compound 5]
IC50: > 300 µM

Oc1ccc(-c2ccc(F)cc2F)cc1 [Compound 9]
LTA4H LE: 0.40 kcal/mol
IC50: 36.2 ± 7.6 µM

Fc1ccc(-c2c[nH]c3ccccc23)cc1 [Compound 10]
LTA4H LE: 0.31 kcal/mol
IC50: 255 ± 24.9 µM

CCCCOc1cc(C(=O)OC)ccc1N [Compound 3]
LTA4H LE: 0.39 kcal/mol
IC50: 24.6 ± 3.2 µM

CCN(Cc1ccccc1)c1ccccc1 [Compound 7]
IC50: > 300 µM

Oc1ccc(Cc2ccccc2)cc1 [Compound 4]
IC50: 3 ± 0.5 µM
